These results are taken from patent US9539298B2, “Lissencephaly therapeutic agent” (OSAKA CITY UNIVERSITY, priority 2010, dated 2017).

The data set deals with nerve cells from cerebellums of FVB mice. Nature of the data set: Analysis of toxicity of calpain inhibitors on cultured cerebellar nerve cells. The class given is cell-based, mouse. The note with it: 100 μM, 16 hours, FIG. 24. The method, then: The cerebellums were removed from 4- to 5-day-old FVB mice (15 mice). In a Ca^2+-free Hank's Balanced Salt Solution (CF-HBSS; Ca^2+, Mg^2+-free Hank's Balanced Salt Solution (CMF-HBBS, Sigma) containing 5 mM magnesium chloride (MgCl2, Wako) and 4 mg/mL glucose (Wako)), the meninges were removed and cut into pieces. After the cerebellum fragments were washed with CF-HBSS, the fragments were allowed to stand for 20 minutes at 37° C. in CF-HBSS containing 0.025% trypsin (Invitrogen) and 6.25 μg/mL deoxyribonuclease (DNase, Sigma), and then centrifuged. The resulting tissues were washed with 10% HS/BME (DNase Medium; obtained by adding 5 mM MgCl2 and 25 μg/mL DNase to Basal Medium Eagle (BME, Invitrogen) containing 10% Horse Serum (HS, Invitrogen)) and centrifuged. DNase medium was added to the cells, and the cells were transferred to a 24-well plate (Nunc). The cells were kept still for 30 minutes at 37′C under an atmospheric environment of 5% CO2, thereby suspending the cells. The cell suspension was isolated, and then washed with 10% HS/BME. The suspension was transferred again to a 24-well plate to be cultured for 16 hours at 37° C. under an atmospheric environment of 5% CO2. The cells were collected to BME containing 1% Bovine Serum Albumin (BSA, Sigma) and 0.5% N2 supplement (Invitrogen), and the cell suspension was seeded on a 35 mm glass base dish (Iwaki) coated beforehand with poly-L-lysine (Sigma) and laminin (Sigma) in an amount of […]. The cells were cultured for 8 hours at 37° C. under an atmospheric environment of 5% CO2. The cultured nerve cells were used as test nerve cells.
A culture solution (10% HS/BME) containing SNJ-1945, E64d, or ALLN was prepared in the following manner. SNJ-1945 dissolved in dimethyl sulfoxide (Sigma, D-5879) was mixed with a culture solution so that the final concentration became 200 μM, and was kept still for an hour at 37° C., thereby completely dissolving SNJ-1945 in the culture medium. ALLN and E64d were also dissolved in culture media in the same manner, except that ALLN and E64d were added to the culture media to final concentrations of 50 μM and 100 μM, respectively. The culture media in which the components were dissolved were added to the test nerve cells prepared above in an amount of 2 ml/well, and the cells were cultured for 16 hours. As a control, the same culture was conducted using a culture medium containing the same amount of dimethyl sulfoxide (Sigma, D-5879). After culture, the cells were observed using an inverted microscope (TCS FP5S, Leica). A 20× objective lens was used. Images were taken using dedicated software (LAS AF, Leica) under the condition of 512×512 pixels.

`CCOC(=O)[C@H]1O[C@@H]1C(=O)N[C@@H](CC(C)C)C(=O)NCCC(C)C` [E64d, reference compound]: the “neurite elongation and cell migration (cytotoxicity)” value was “the cells were aggregated in the center, many cells were incapable of neurite elongation, little migration was observed compared with the control”.
